Assay results taken from PubChem BioAssay AID2060507 (Molecular Pharmacology Branch, DTP, NCI, 2025).

Test system: 519858-162-T-J1-PDC complex spheroid viability
Test: Anticancer human tumor 519858-162-T-J1-PDC patient-derived colon adenocarcinoma cell line growth inhibition [GQUAD]
Details: for IC50: curve of first compound; for viability, T/C: stronger effect = lower value
Summary of the method: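 Viability of tumor cells grown as complex spheroids with endothelial and stromal cells, exposed to drug combinations. Top concentration at or near clinical Cmax (else 10 microM), diluted in half-log increments.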

[1] = second compound 0.0316 µM, first compound 0.0316 µM
[2] = second compound 0.0316 µM, first compound 0.1 µM
[3] = second compound 0.0316 µM, first compound 0.316 µM
[4] = second compound 0.0316 µM, first compound 1 µM
[5] = second compound 0.0316 µM, first compound 3.16 µM
[6] = second compound 0.0316 µM, first compound 10 µM
[7] = second compound 0.1 µM, first compound 0.0316 µM
[8] = second compound 0.1 µM, first compound 0.1 µM
[9] = second compound 0.1 µM, first compound 0.316 µM
[10] = second compound 0.1 µM, first compound 1 µM
[11] = second compound 0.1 µM, first compound 3.16 µM
[12] = second compound 0.1 µM, first compound 10 µM
[13] = second compound 0.316 µM, first compound 0.0316 µM
[14] = second compound 0.316 µM, first compound 0.1 µM
[15] = second compound 0.316 µM, first compound 0.316 µM
[16] = second compound 0.316 µM, first compound 1 µM
[17] = second compound 0.316 µM, first compound 3.16 µM
[18] = second compound 0.316 µM, first compound 10 µM
[19] = second compound 1 µM, first compound 0.0316 µM
[20] = second compound 1 µM, first compound 0.1 µM
[21] = second compound 1 µM, first compound 0.316 µM
[22] = second compound 1 µM, first compound 1 µM
[23] = second compound 1 µM, first compound 3.16 µM
[24] = second compound 1 µM, first compound 10 µM
[25] = second compound 3.16 µM, first compound 0.0316 µM
[26] = second compound 3.16 µM, first compound 0.1 µM
[27] = second compound 3.16 µM, first compound 0.316 µM
[28] = second compound 3.16 µM, first compound 1 µM
[29] = second compound 3.16 µM, first compound 3.16 µM
[30] = second compound 3.16 µM, first compound 10 µM
[31] = second compound 10 µM, first compound 0.0316 µM
[32] = second compound 10 µM, first compound 0.1 µM
[33] = second compound 10 µM, first compound 0.316 µM
[34] = second compound 10 µM, first compound 1 µM
[35] = second compound 10 µM, first compound 3.16 µM
[36] = second compound 10 µM, first compound 10 µM
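Wherever viability, T/C is given: 100% = DMSO vehicle control viability.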

COc1ccc([C@@H](O)c2cc(-c3ncnc4cc(N5CCOCC5)ccc34)c(F)cc2Cl)nn1 + CN(C)c1ccc(Nc2c3ccc(NC(=O)CCN4CCCC4)cc3nc3cc(NC(=O)CCN4CCCC4)ccc23)cc1
IC50 (second compound 0.0316 µM): > 10 µM
IC50 (second compound 0.1 µM): > 10 µM
IC50 (second compound 0.316 µM): > 10 µM
IC50 (second compound 1 µM): > 10 µM
IC50 (second compound 3.16 µM): > 10 µM
IC50 (second compound 10 µM): > 10 µM
viability, T/C [1]: 113%
viability, T/C [2]: 130%
viability, T/C [3]: 110%
viability, T/C [4]: 82.1%
viability, T/C [5]: 98%
viability, T/C [6]: 97.7%
viability, T/C [7]: 119%
viability, T/C [8]: 90.7%
viability, T/C [9]: 92.1%
viability, T/C [10]: 148%
viability, T/C [11]: 87.9%
viability, T/C [12]: 127%
viability, T/C [13]: 86.8%
viability, T/C [14]: 108%
viability, T/C [15]: 95.2%
viability, T/C [16]: 92.5%
viability, T/C [17]: 104%
viability, T/C [18]: 85.8%
viability, T/C [19]: 92.6%
viability, T/C [20]: 75.7%
viability, T/C [21]: 72%
viability, T/C [22]: 88.7%
viability, T/C [23]: 57.4%
viability, T/C [24]: 82.2%
viability, T/C [25]: 102%
viability, T/C [26]: 65.1%
viability, T/C [27]: 53.8%
viability, T/C [28]: 66.3%
viability, T/C [29]: 94.1%
viability, T/C [30]: 83.5%
viability, T/C [31]: 74.5%
viability, T/C [32]: 95.2%
viability, T/C [33]: 73.4%
viability, T/C [34]: 86.1%
viability, T/C [35]: 72.4%
viability, T/C [36]: 88.4%

Cc1cccc(N(C)C(=O)C2C(O)CCN2c2nc(C)cc(C(F)(F)F)c2C#N)c1 (stereo unspecified) + CN(C)c1ccc(Nc2c3ccc(NC(=O)CCN4CCCC4)cc3nc3cc(NC(=O)CCN4CCCC4)ccc23)cc1
IC50 (second compound 0.0316 µM): > 10 µM
IC50 (second compound 0.1 µM): > 10 µM
IC50 (second compound 0.316 µM): > 10 µM
IC50 (second compound 1 µM): > 10 µM
IC50 (second compound 3.16 µM): > 10 µM
IC50 (second compound 10 µM): > 10 µM
viability, T/C [1]: 86.1%
viability, T/C [2]: 126%
viability, T/C [3]: 96.4%
viability, T/C [4]: 95.2%
viability, T/C [5]: 91.1%
viability, T/C [6]: 92.9%
viability, T/C [7]: 105%
viability, T/C [8]: 78.6%
viability, T/C [9]: 109%
viability, T/C [10]: 77.2%
viability, T/C [11]: 68.1%
viability, T/C [12]: 83.8%
viability, T/C [13]: 111%
viability, T/C [14]: 87.7%
viability, T/C [15]: 120%
viability, T/C [16]: 61.4%
viability, T/C [17]: 75%
viability, T/C [18]: 85.5%
viability, T/C [19]: 102%
viability, T/C [20]: 84.6%
viability, T/C [21]: 109%
viability, T/C [22]: 73.1%
viability, T/C [23]: 88.8%
viability, T/C [24]: 73.3%
viability, T/C [25]: 63.9%
viability, T/C [26]: 76.2%
viability, T/C [27]: 103%
viability, T/C [28]: 91.8%
viability, T/C [29]: 78.5%
viability, T/C [30]: 62.3%
viability, T/C [31]: 71.2%
viability, T/C [32]: 78.8%
viability, T/C [33]: 57.9%
viability, T/C [34]: 90.7%
viability, T/C [35]: 65.2%
viability, T/C [36]: 88.3%

Cn1ncnc1[C@H]1c2n[nH]c(=O)c3cc(F)cc(c23)N[C@@H]1c1ccc(F)cc1 + CN(C)c1ccc(Nc2c3ccc(NC(=O)CCN4CCCC4)cc3nc3cc(NC(=O)CCN4CCCC4)ccc23)cc1
IC50 (second compound 0.0316 µM): > 0.316 µM
IC50 (second compound 0.1 µM): > 0.316 µM
IC50 (second compound 0.316 µM): > 0.316 µM
IC50 (second compound 1 µM): > 0.316 µM
IC50 (second compound 3.16 µM): > 0.316 µM
IC50 (second compound 10 µM): > 0.316 µM
viability, T/C (second compound 0.0316 µM, first compound 0.000999 µM): 74.5%
viability, T/C (second compound 0.0316 µM, first compound 0.00316 µM): 119%
viability, T/C (second compound 0.0316 µM, first compound 0.00999 µM): 146%
viability, T/C [1]: 66.9%
viability, T/C (second compound 0.0316 µM, first compound 0.0999 µM): 79.6%
viability, T/C [3]: 118%
viability, T/C (second compound 0.1 µM, first compound 0.000999 µM): 96%
viability, T/C (second compound 0.1 µM, first compound 0.00316 µM): 109%
viability, T/C (second compound 0.1 µM, first compound 0.00999 µM): 79%
viability, T/C [7]: 103%
viability, T/C (second compound 0.1 µM, first compound 0.0999 µM): 104%
viability, T/C [9]: 105%
viability, T/C (second compound 0.316 µM, first compound 0.000999 µM): 94.4%
viability, T/C (second compound 0.316 µM, first compound 0.00316 µM): 139%
viability, T/C (second compound 0.316 µM, first compound 0.00999 µM): 99.1%
viability, T/C [13]: 84.6%
viability, T/C (second compound 0.316 µM, first compound 0.0999 µM): 83%
viability, T/C [15]: 109%
viability, T/C (second compound 1 µM, first compound 0.000999 µM): 75.3%
viability, T/C (second compound 1 µM, first compound 0.00316 µM): 68.4%
viability, T/C (second compound 1 µM, first compound 0.00999 µM): 82.2%
viability, T/C [19]: 63.5%
viability, T/C (second compound 1 µM, first compound 0.0999 µM): 88.9%
viability, T/C [21]: 119%
viability, T/C (second compound 3.16 µM, first compound 0.000999 µM): 104%
viability, T/C (second compound 3.16 µM, first compound 0.00316 µM): 97.8%
viability, T/C (second compound 3.16 µM, first compound 0.00999 µM): 78.6%
viability, T/C [25]: 63.2%
viability, T/C (second compound 3.16 µM, first compound 0.0999 µM): 54.8%
viability, T/C [27]: 91.9%
viability, T/C (second compound 10 µM, first compound 0.000999 µM): 89.9%
viability, T/C (second compound 10 µM, first compound 0.00316 µM): 57.5%
viability, T/C (second compound 10 µM, first compound 0.00999 µM): 82.4%
viability, T/C [31]: 79.6%
viability, T/C (second compound 10 µM, first compound 0.0999 µM): 67.5%
viability, T/C [33]: 65.7%
